In the NIST ThermoML archive (doi:10.1021/je901067c):

Assays:
[1] = refractive index (Na D-line) (dimensionless); xn = mol fraction of the nth substance listed; conditions: 101 kPa, Liquid, Standard Abbe refractometry
[2] = xn = mol fraction of the nth substance listed; conditions: 101 kPa, Liquid; for viscosity: Capillary tube (Ostwald / Ubbelohde) method

CCC(O)CC [3-pentanol] + CCC(C)=O
Conditions	mass density, 298.15 K [kg/m3]	mass density, 308.15 K [kg/m3]	mass density, 318.15 K [kg/m3]	refractive index, 298.15 K	refractive index, 308.15 K	refractive index, 318.15 K	viscosity, 298.15 K [mPa·s]	viscosity, 308.15 K [mPa·s]	viscosity, 318.15 K [mPa·s]
[1], x2 = 0	–	–	–	1.4047	1.4029	1.3981	–	–	–
[1], x2 = 0.0843	–	–	–	1.4032	1.4012	1.3965	–	–	–
[1], x2 = 0.1622	–	–	–	1.4016	1.3995	1.3949	–	–	–
[1], x2 = 0.2428	–	–	–	1.3999	1.3975	1.3929	–	–	–
[1], x2 = 0.3505	–	–	–	1.3971	1.3944	1.3901	–	–	–
[1], x2 = 0.4415	–	–	–	1.3945	1.3916	1.3873	–	–	–
[1], x2 = 0.5584	–	–	–	1.3908	1.3876	1.3835	–	–	–
[1], x2 = 0.6526	–	–	–	1.3876	1.3841	1.38	–	–	–
[1], x2 = 0.7399	–	–	–	1.3846	1.3806	1.3767	–	–	–
[1], x2 = 0.854	–	–	–	1.3803	1.376	1.372	–	–	–
[1], x2 = 0.9383	–	–	–	1.3773	1.3725	1.3684	–	–	–
[2], x2 = 0	815.79	806.91	797.66	–	–	–	4.625	2.864	1.902
[2], x2 = 0.0843	813.43	804.58	795.034	–	–	–	2.842	1.965	1.382
[2], x2 = 0.1622	811.5	802.6	792.888	–	–	–	2.007	1.476	0.9911
[2], x2 = 0.2428	809.72	800.57	790.723	–	–	–	1.494	1.151	0.7246
[2], x2 = 0.3505	807.45	798.07	788.175	–	–	–	1.084	0.869	0.5197
[2], x2 = 0.4415	805.82	796.23	786.285	–	–	–	0.86	0.717	0.417
[2], x2 = 0.5584	803.92	794.1	784.161	–	–	–	0.677	0.578	0.3306
[2], x2 = 0.6526	802.64	792.64	782.699	–	–	–	0.591	0.506	0.2938
[2], x2 = 0.7399	801.72	791.55	781.619	–	–	–	0.508	0.448	0.2919
[2], x2 = 0.854	800.8	790.31	780.165	–	–	–	0.445	0.396	0.297
[2], x2 = 0.9383	800.16	789.7	779.212	–	–	–	0.407	0.365	0.3106

CCC(C)=O [butanone] + CCCCCO
Conditions	mass density, 298.15 K [kg/m3]	mass density, 308.15 K [kg/m3]	mass density, 318.15 K [kg/m3]	refractive index, 298.15 K	refractive index, 308.15 K	refractive index, 318.15 K	viscosity, 298.15 K [mPa·s]	viscosity, 308.15 K [mPa·s]	viscosity, 318.15 K [mPa·s]
[1], x1 = 0.088	–	–	–	1.4049	1.4014	1.3976	–	–	–
[1], x1 = 0.1632	–	–	–	1.4031	1.3997	1.3957	–	–	–
[1], x1 = 0.2427	–	–	–	1.401	1.3976	1.3937	–	–	–
[1], x1 = 0.3549	–	–	–	1.3979	1.3943	1.3905	–	–	–
[1], x1 = 0.4434	–	–	–	1.3953	1.3914	1.3878	–	–	–
[1], x1 = 0.5597	–	–	–	1.3915	1.3873	1.3838	–	–	–
[1], x1 = 0.6518	–	–	–	1.3883	1.3838	1.3804	–	–	–
[1], x1 = 0.7401	–	–	–	1.3851	1.3804	1.377	–	–	–
[1], x1 = 0.8477	–	–	–	1.381	1.376	1.3724	–	–	–
[1], x1 = 0.9355	–	–	–	1.3776	1.3725	1.3686	–	–	–
[1], x1 = 1	–	–	–	1.375	1.37	1.3657	–	–	–
[2], x1 = 0.088	809.94	802.26	794.44	–	–	–	2.557	2.011	1.608
[2], x1 = 0.1632	809.15	801.25	793.21	–	–	–	1.997	1.616	1.321
[2], x1 = 0.2427	808.31	800.16	791.89	–	–	–	1.592	1.304	1.097
[2], x1 = 0.3549	807.11	798.62	789.99	–	–	–	1.202	1.009	0.852
[2], x1 = 0.4434	806.15	797.39	788.5	–	–	–	0.983	0.835	0.721
[2], x1 = 0.5597	804.87	795.76	786.5	–	–	–	0.773	0.667	0.585
[2], x1 = 0.6518	803.85	794.44	784.88	–	–	–	0.648	0.57	0.5
[2], x1 = 0.7401	802.85	793.14	783.31	–	–	–	0.554	0.492	0.443
[2], x1 = 0.8477	801.59	791.54	781.36	–	–	–	0.485	0.427	0.381
[2], x1 = 0.9355	800.55	790.21	779.73	–	–	–	0.42	0.38	0.345
[2], x1 = 1	799.76	789.21	778.52	–	–	–	0.391	0.361	0.334

CCCC(C)O (configuration not stated) [pentan-2-ol] + CCC(C)=O
Conditions	mass density, 298.15 K [kg/m3]	mass density, 308.15 K [kg/m3]	mass density, 318.15 K [kg/m3]	refractive index, 298.15 K	refractive index, 308.15 K	refractive index, 318.15 K	viscosity, 298.15 K [mPa·s]	viscosity, 308.15 K [mPa·s]	viscosity, 318.15 K [mPa·s]
[1], x2 = 0	–	–	–	1.4032	1.399	1.395	–	–	–
[1], x2 = 0.0824	–	–	–	1.4014	1.3974	1.3937	–	–	–
[1], x2 = 0.1612	–	–	–	1.3998	1.3959	1.3923	–	–	–
[1], x2 = 0.2401	–	–	–	1.398	1.3941	1.3906	–	–	–
[1], x2 = 0.3519	–	–	–	1.3952	1.3914	1.3877	–	–	–
[1], x2 = 0.4396	–	–	–	1.3929	1.389	1.3852	–	–	–
[1], x2 = 0.5608	–	–	–	1.3895	1.3854	1.3813	–	–	–
[1], x2 = 0.6494	–	–	–	1.3868	1.3826	1.3782	–	–	–
[1], x2 = 0.7403	–	–	–	1.384	1.3796	1.375	–	–	–
[1], x2 = 0.8491	–	–	–	1.3803	1.3757	1.3711	–	–	–
[1], x2 = 0.9384	–	–	–	1.3772	1.3724	1.3679	–	–	–
[2], x2 = 0	805.3	797	788.37	–	–	–	3.478	2.361	1.772
[2], x2 = 0.0824	804	795.54	786.83	–	–	–	2.664	1.778	1.344
[2], x2 = 0.1612	802.99	794.34	785.5	–	–	–	2.066	1.381	1.094
[2], x2 = 0.2401	802.04	793.29	784.32	–	–	–	1.69	1.105	0.897
[2], x2 = 0.3519	800.97	791.97	782.76	–	–	–	1.347	0.865	0.721
[2], x2 = 0.4396	800.31	791.07	781.66	–	–	–	1.131	0.731	0.642
[2], x2 = 0.5608	799.65	790.15	780.47	–	–	–	0.886	0.587	0.514
[2], x2 = 0.6494	799.34	789.63	779.91	–	–	–	0.743	0.518	0.457
[2], x2 = 0.7403	799.2	789.23	779.15	–	–	–	0.623	0.462	0.407
[2], x2 = 0.8491	799.26	789.02	778.67	–	–	–	0.505	0.406	0.366
[2], x2 = 0.9384	799.49	789.09	778.55	–	–	–	0.436	0.371	0.338
